In patent publication US20040224935A1, “Topical antiandrogenic steroids” (Endorecherche, Inc., priority 2003, published 2004):

Assays:
[1] = tested on: Shionogi mouse mammary carcinoma cells; test: In vitro androgenic/antiandrogenic activity, DHT-stimulated Shionogi cell number; type: cell-based; details: for Shionogis (In Vitro) VS OH-FLU (ratio of Ki of hydroxyflutamide versus tested compound): OH-Flu = 1, DHT-stimulated cell number, higher values preferable; for IC50: Mus musculus, read-out: Shionogis (In Vitro) IC50(nM), inhibition of DHT-stimulated cell number, 10-12 days
[2] = tested on: Hamster's ear sebaceous glands; test: Topical antiandrogenic activity, histomorphometry of the ear sebaceous glands in the hamster; type: in vivo, Male Golden Syrian hamster; details: Mesocricetus auratus, 336 h, once daily, 14 days, sebaceous gland area, read-out: Antiandrogenic activity in Hamster's sebaceous glands Inh. Vs Cx (%); for inhibition in vivo at 0.001 mg: dose 1 μg applied topically on left ear of intact male hamster; for inhibition in vivo at 0.003 mg: dose 3 μg applied topically on left ear of intact male hamster; for inhibition in vivo at 0.01 mg: dose 10 μg applied topically on left ear of intact male hamster
Source text: Column 3 represents the dose of antiandrogenic compounds applied on the left ear of the intact male hamster.
Column 4 represents the relative inhibition in % of the area of the sebaceous gland of the left ear versus control hamster. Higher values approaching the effect of castration are preferable
The Antiandrogenic activity of antiandrogenic compounds has been measured using a Histomorphometry assay of the Ear Sebaceous Glands in the Hamster
1. Animals Male Golden Syrian, Hamster (SYR) of 110-120 g were obtained from Harlan Sprague Dawlay (Madison, USA) and housed up to 2 per cage in plastic cages in a temperature (22±3° C.) and light (12 h light/day, lights on at 7 h 15) in a controlled environment. The hamsters were fed with Certified Rodent Diet 5002 (pellet) and tap water ad libitum. The animals were acclimated for at least five days before the beginning of the study. Animals were randomly assigned to groups of eight hamsters. One group of hamsters was castrated under isoflurane-induced anesthesia on the day of dosing initiation (SD 1) and used as control group.
2. Treatments To evaluate the antiandrogenic activity, tested compounds were applied topically on the inner part of the left ear, once daily, for 14 days. Ten μL solution of acetone: ethanol: propylene Glycol (1:1:2; v:v:v) containing 0.1, 0.3 or 1.0 mg/mL of tested compound was carefully applied onto a region between the two cartilage ridges of the ventral surface of left pinna. For animals in the castrated and intact control groups ten-μL vehicle was applied onto the left ear. No solution will be applied on the right ear for any animals of the study.
3. Postmortem Observations and Measurements On Study Day 15, the hamsters were euthanized by cervical dislocation under isoflurane anesthesia. The left and right ears were collected attached together by the head skin, flat fixed on a paper and were immersed in 10% neutral buffered formalin. From the flat fixed ear and using paper puncture that makes a hole of 6 mm, the region where solution was applied was collected from each ear. Using a scalpel blade, the collected 6 mm round ear specimen was cut in the middle between the two cartilage ridges. The two equal parts of the ear round specimen were embedded in paraffin. After processing the tissue, the two parts were vertically embedded parallel to each other in a way that the flat 6 mm area was facing out. From each paraffin block, one section (5 μm thick) was cut and collected on a glass slide. Thus, each slide contained two elongated sections of 6 mm length. Slides were stained with hematoxylin and eosin.
4. Analysis of Sebaceous Gland Area Using the video camera and objective lens number X5 of the light microscope, the resulting field that appears on the screen has a length of 0.953 mm. From the glass slide, when we have examined the first 6 mm long section from the left to the right, the first and second fields were ignored and the third and fourth fields were captured for analysis by the image analyzer. Each field has the length of 0.953 mm. With the help of the screen mouse, the sebaceous glands within the whole field length (0.953mm) were marked. Also, an area with the length of the whole field and the height between stratum granulosum and the upper edge of the cartilage was drawn.
The image analyzer calculated the total area of the sebaceous glands (μm^2) in each examined field. We also obtained the area, which has the length of 0.953 mm and the height between stratum granulosum and the cartilage. In addition, the percentage of the area occupied by the glands was obtained. Thus, for each ear, two sections were cut and two fields from each section were analyzed. The total of the four readings was averaged and the mean standard of error calculated by the image analyzer. The results were expressed in μm^2 as the total surface of glands per field and also as percentage of the area occupied by the glands.

[3] = tested on: rat seminal vesicle; test: Systemic antiandrogenic activity in immature male rats (castrated, DHT implant), seminal vesicle weight; details: po, 168 h, 0.5 mg/animal per os once daily 7 days, % efficacy relative to inhibition by flutamide, read-out: RAT (in vivo) (systemic) SV Inh % inh. (0.5 mg, per os)
Protocol: Column 6 represents the % of antiandrogenic efficacy on the rat seminal vesicle, relative to the percentage of inhibition by flutamide calculated by the formula:
(§1) % efficacy versus Flu=100×% inhib (compound)/% inhib (Flu).
(§2) Where the percentage of inhibition (% inhib) is calculated by the following formula:
(§3) % Inhib=100−[W (compound)−W (control)/W (DHT)−W (control)]×100.
W is the weight of the seminal vesicle.
(§4) C Systemic antiandrogenic activity (immature male rats)
(§5) 1. Animals Immature male rats (Crl:CD(SD)Br) 22 to 24-day old were obtained from Charles-River, Inc. (St-Constant, Quebec, Canada) and housed up to 5 per cage in plastic bins in a temperature (23±1° C.)—and light (12 h light/day, lights on at 7h15)—controlled environment. The rats were fed rodent chow and tap water ad libitum. The day following their arrival, the animals were orchidectornized (CX) under Isoflurane anesthesia via scrotal route and randomly assigned to groups of 5 animals. One silastic implant of dihydrotestosterone (DHT; length of implant: 1 cm) was inserted subcutaneously in the dorsal area of animals at the time of orchidectomy. One group of 5 animals was CX only as control (no DHT implant inserted).
(§6) 2. Treatments To evaluate the antiandrogenic activity, tested compounds were administered orally by gavage once daily at a dose of 0.5 mg/animal for 7 days (SD 1 to 7). Compounds were solubilized (when possible) in dimethylsulfoxide (DMS, 10% final concentration) and administered as suspension in 0.4% methylcellulose. Rats in CX control and CX+DHT control groups received the vehicle alone during the 7-day period. One group of animals received the antiandrogen Flutamide as reference. The animals were killed by cervical dislocation under isoflurane anesthesia on the 8th morning following castration. The ventral prostate and seminal vesicles were rapidly dissected and weighed.
(§7) 3. Calculations and Statistical Analysis The percentage of inhibition (% inhib) is calculated by the following formula:
(§8) This percentage is reported as % of efficacy, relatively to the percentage of inhibition of flutaride calculated by the formula: % efficacy versus Flu=100×% inhib (compound)/% inhib (Flu).
(§9) W is the weight of the prostate or the seminal vesicle.

[4] = tested on: rat prostate; test: Systemic antiandrogenic activity in immature male rats (castrated, DHT implant), prostate weight; details: po, 168 h, 0.5 mg/animal per os once daily 7 days, % efficacy relative to inhibition by flutamide, read-out: RAT (in vivo) (systemic) Prostate Inh. % inh. (0.5 mg, per os)
Protocol: Column 5 represents the % of antiandrogenic efficacy in rat prostate, relatively to the percentage of inhibition of flutamide calculated by the formula:
as §1, §2
% lnhib=100−[W (compound)−W (control)/W (DHT)−W (control)]×100.
W is the weight of the prostate.
as §4, §5, §6, §7, §3, §8, §9

Row | Compound | Shionogis (In Vitro) VS OH-FLU (ratio of Ki of hydroxyflutamide versus tested compound) [1] | inhibition in vivo at 0.001 mg [2] | inhibition in vivo at 0.003 mg [2] | inhibition in vivo at 0.01 mg [2] | inhibition in vivo at 0.5 mg [3] | inhibition in vivo at 0.5 mg [4] | IC50 [1]
1 | CCC1(CC)CC2C3CCc4c(C#N)cccc4C3CC[C@]2(C)C1=O (stereo partly shown) [EM-3411] | ˜1 | 3.7% | 14.8% | 62.9% | 10% | 0% | 
2 | CC1(C)CC2C3CCc4c(Cl)cccc4C3CC[C@]2(C)[C@H]1O (stereo partly shown) [EM-3415] | 2.5 | 0% | 11.1% | 44.4% | 0% | 0% | 26 nM
3 | CC(C)[C@H]1CC2C3CCc4c(C#N)cccc4C3CC[C@]2(C)[C@H]1O (stereo partly shown) [EM-4157] | 5 | 18.5% | 29.6% | 40.7% | 55% | 0% | 33 nM
4 | CC[C@]1(C)CC2C3CCc4c(C#N)cccc4C3CC[C@]2(C)[C@H]1O (stereo partly shown) [EM-3226] | 5.9 | 7.4% | 29.6% | 33.3% | 0% | 0% | 3.6 nM
5 | C#Cc1ccc2c(c1)CCC1C2CC[C@@]2(C)C1C[C@@H](C)[C@@H]2O (stereo partly shown) [EM-5035] | 1.6 | 3.7% | 11.1% | 51.9% | 4% | 11% | 66 nM
